In US12043602B2, “Fendiline derivatives” (The Board of Regents of the University of Texas System, priority 2019, dated 2024):
“And” between values parts separate entries of the source, which are not always exact repeats. Identical values can stand only once. “Also recorded” adds a separate entry of the source. Like-named read-outs stand apart in the source and are kept apart here.

Tests used:
[1] = system: NCI-H23 (Mut) lung tumor cells; experiment: CyQUANT proliferation assay; format: cell-based; details: Homo sapiens
Protocol: (§1) Madine Darby Canine Kidney epithelial cells (MDCK) stably co-expressing mGFP-tagged full length oncogenic mutant K-Ras (GFP—K-RASG12V) or mGFP-LactC2 (peptide probe for phosphatidylserine) and mCherry-tagged to the amino acids 179-189 of H-RasC181S, C184S (mCherry-CAAX, localizes primarily to endomembranes) were grown in DMEM-high glucose/sodium pyruvate/10% FBS. The medium was supplemented with 1× Penicillin/Streptomycin for fluorescence microscopy assays, to avoid any microbial contamination from the test compounds added. KLE and Hec50 cells were maintained in DMEM-F-12 medium supplemented with 10% FBS. Hec-1A and Hec-1B cells were grown in McCoy's 5a medium supplemented with 10% FBS. ESS-1 cells were grown in RPMI 1640 medium supplemented with 20% FBS. MPanc96 cells were grown in DMEM supplemented with 10% FBS, MiaPaCa-2 cells in DMEM supplemented with 10% FBS and 2.5% horse serum and all other cell lines were grown in RPMI 1640 supplemented with 10% FBS. All cancer cell media were supplemented with ×Penicillin/Streptomycin. All cell lines were grown at 37° C. with 5% CO2.
(§2) Cells were seeded in 96-well plates. After 24 h, fresh growth medium supplemented with 0.1% vehicle (DMSO), or various concentrations of drugs was added and cells were grown for 72 h. Cell numbers were quantified using the CyQUANT® Cell Proliferation Assay Kit (Molecular Probes, Life Technologies), according to the manufacturer's protocol. Fluorescence measurement was used as a measure of live cell number.

[2] = system: NCI-H1299 (WT) lung tumor cells; experiment: CyQUANT proliferation assay; format: cell-based; details: Homo sapiens
Protocol: as §1, §2

[3] = system: CaCO-2 (WT) colon tumor cells; experiment: CyQUANT proliferation assay; format: cell-based; details: Homo sapiens
Protocol: as §1, §2

[4] = system: Hec1A (Mut) endometrial tumor cells; experiment: CyQUANT proliferation assay; format: cell-based; details: Homo sapiens, HEC-1-A
Protocol: as §1, §2

[5] = system: Hec1B (Mut) endometrial tumor cells; experiment: CyQUANT proliferation assay; format: cell-based; details: Homo sapiens, HEC-1B
Protocol: as §1, §2

[6] = system: SK-CO-1 (Mut) colon tumor cells; experiment: CyQUANT proliferation assay; format: cell-based; details: Homo sapiens
Protocol: as §1, §2

MiaPaCa-2 tumors = experiment: In vivo tumor growth assay (xenograft); parameters: species or system nu/nu mice; details: for growth of MiaPaCa-2 xenografts: intraperitoneally, once daily 5 days on / 2 days off, doses 1-12.5 mg/kg; for minimum effective dose on tumor growth relative to fendiline: MiaPaCa2 xenografts in nude mice
Protocol: In Vivo Tumor Growth Assay. All animal studies were performed under an Institutional Animal Care and Use Committee (IACUC) approved animal protocol (AWC-15-0101), in accordance with the National Institutes of Health Guide for the Care and Use of Laboratory Animals. Early passage MiaPaCa-2 cells were harvested, and 2×10^6 cells were implanted into the right flanks of female nu/nu mice. The animals were randomized into control and treated groups (10 mice per group). Tumor volume (V) was measured with an external caliper every 3-4 days and it was calculated as V=0.52 (length×width2). Compound treatment was initiated when the tumor sizes reached 100 mm3. Compounds (12.5 mg/kg) were injected daily intraperitoneally for 5 days, with 2 days of no treatment in between. All treatments were continued until any of the subcutaneous tumors reached 1500 mm3 in volume, when all the animals were sacrificed, and the tumors removed.
Early passage BxPC-3 or MIAPaCa-2 cells were harvested, and 2-3X106 cells were implanted into the right flanks of nu/nu mice. The animals were randomized into control and treated groups (10 mice per group). Tumor volume (V) was measured with an external caliper every 3-4 days and it was calculated as V=0.52 (length×width2). Drug treatment was initiated 4 days after tumor implantation. Drugs were injected daily intraperitoneally (at doses indicated) for 5 days, with 2 days of no treatment in between. All treatments were continued until any of the subcutaneous tumors reached 1500 mm3 in volume or for 6 weeks (whichever was first), when all the animals were sacrificed and the tumors removed.
Next the effect of the selected PMLIs on the growth of oncogenic KRAS expressing MiaPaCa-2 cells implanted subcutaneously into the flanks of nu/nu immunosuppressed mice was determined. […] The animals were randomized into control and PMLI-treated groups (10 mice per group). Treatment was initiated when the tumors reached a mean volume of 100 mm^3. PMLIs were tested at 12.5, 7.5, 5, 2.5 and 1 mg/kg doses, administered once daily intraperitoneally for 5 days, with 2 days of no treatment in between for the duration of the experiment. […] There was no observed toxicity detected in any of the compound-treated groups during the experiment and, accordingly, there was no significant difference in the body weight of the animals in the different groups.

[7] = system: MiaPaCa-2 (Mut) pancreatic tumor cells; experiment: CyQUANT proliferation assay; format: cell-based; details: Homo sapiens
Protocol: as §1, §2

mGFP-K-RASG12V = mGFP-K-RASG12V (Homo sapiens (Human), UniProt P01116, G12V); experiment: K-Ras mislocalization assay (confocal microscopy, Manders coefficient); format: cell-based; parameters: key to Emax: Manders coefficient: fraction of mCherry-CAAX co-localizing with GFP-K-Ras; details: for IC50 / Emax: MDCK cells; for Emax: maximal effect, Manders coefficient
Method in brief: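 MDCK cells stably co-expressing mGFP-K-RASG12V and mCherry-CAAX (endomembrane marker) treated with compound or 0.1% DMSO for 48 h, fixed in 4% paraformaldehyde, imaged by confocal microscopy. Mislocalization quantified as the fraction of mCherry-CAAX co-localizing with mGFP-K-RASG12V (Manders coefficient) after 8-bit thresholding.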

[8] = NCI-H23, 72 h, read-out: IC50 proliferation NCI-H23 (Mut)
[9] = NCI-H23, Table 11, lung, read-out: IC50 (μM) NCI H23 (Mut)
[10] = NCI-H1299, 72 h, read-out: IC50 proliferation NCI-H1299 (WT; N Mut in Table 6)
[11] = NCI-H1299, Table 11, lung, read-out: IC50 (μM) NCI H1299 (WT)
[12] = Caco-2, 72 h, read-out: IC50 proliferation CaCO-2 (WT)
[13] = Caco-2, Table 11, colon, read-out: IC50 (μM) Caco-2 (WT)
[14] = 72 h, read-out: IC50 proliferation Hec1A (Mut)
[15] = Table 11, endometrial, read-out: IC50 (μM) Hec1A (Mut)
[16] = 72 h, read-out: IC50 proliferation Hec1B (Mut)
[17] = Table 11, endometrial, read-out: IC50 (μM) Hec1B (Mut)
[18] = SK-CO-1, 72 h, read-out: IC50 proliferation SK-CO-1 (Mut)
[19] = SK-CO-1, Table 11, colon, read-out: IC50 (μM) SK-CO-1 (Mut)
[20] = MIA PaCa-2, 72 h, read-out: IC50 proliferation MiaPaCa-2 (Mut)
[21] = MIA PaCa-2, Table 11, pancreatic, read-out: IC50 (μM) MiaPaCa-2 (Mut)
[22] = 48 h treatment, read-out: IC50 (μM), KRASG12V mislocalization

| Compound | IC50 [1, 8] | IC50 [1, 9] | IC50 [2, 10] | IC50 [2, 11] | IC50 [3, 12] | IC50 [3, 13] | IC50 [4, 14] | IC50 [4, 15] | IC50 [5, 16] | IC50 [5, 17] | IC50 [6, 18] | IC50 [6, 19] | IC50 [7, 20] | IC50 [7, 21] | minimum effective dose on tumor growth relative to fendiline (MiaPaCa-2 tumors) | IC50 (mGFP-K-RASG12V; [22]) | Emax (mGFP-K-RASG12V; 48 h) | other results |
| --- | --- | --- | --- | --- | --- | --- | --- | --- | --- | --- | --- | --- | --- | --- | --- | --- | --- | --- |
| CC(NCCC(c1ccccc1)c1ccccc1)c1ccccc1 (centres unmarked) [Fendiline] | 11.4 µM | 11.4 ± 1 µM | 24.2 µM | 24.3 ± 2.1 µM | 15.4 µM | 14.5 µM | 9.48 µM | 9.48 µM | 9.8 µM | 9.8 µM | 7.77 µM | 7.8 µM | 9.17 µM | 9.2 ± 0.6 µM | – | – | – | MiaPaCa2 xenograft size (MiaPaCa-2 tumors; 12.5 mg/kg intraperitoneally, days 28, 32 and 35): significantly smaller; growth of MiaPaCa-2 xenografts (MiaPaCa-2 tumors): inhibits the growth |
| COc1ccc([C@@H](C)N(CC=C(c2ccccc2)c2ccccc2)CCN2CCN(C)CC2)cc1 [NY0244, (R)-N-(1-(4-methoxyphenyl)ethyl)-N-(2-(4-methylpiperazin-1-yl)ethyl)-3,3-diphenylprop-2-en-1-amine] | 3.81 µM | 3.8 µM | 8.24 µM | 8.2 µM | 5.1 µM | 5.1 µM | 2.6 µM | 2.6 µM | 3.28 µM | 3.3 µM | 3.28 µM | 3.3 µM | 3.03 µM | 3 µM | more potent than fendiline | 0.1 µM | 0.75 ± 0.01 | Emax (mGFP-K-RASG12V; 48 h, listed as 12f): 0.75 and 0.75 ± 0.01; fold increase in KRAS mislocalization potency (mGFP-K-RASG12V; versus hit 7): 5 fold |
| COc1ccc([C@@H](C)N(CC=C(c2ccccc2)c2ccccc2)CCN2CCCC2)cc1 [NY0331, (R)-N-(1-(4-methoxyphenyl)ethyl)-3,3-diphenyl-N-(2-(pyrrolidin-1-yl)ethyl)prop-2-en-1-amine] | – | – | – | – | – | – | – | – | – | – | – | – | 3.36 µM | 3.1 µM | more potent than fendiline | 0.3 µM | 0.85 ± 0.04 | tumor growth at 1 mg/kg (MiaPaCa-2 tumors; 1 mg/kg intraperitoneally): significantly inhibited tumor growth; growth of MiaPaCa-2 xenografts (MiaPaCa-2 tumors; listed as 12h): suppressed; also recorded: strikingly decreased the rate of growth; fold potency loss / decreased potency (mGFP-K-RASG12V; versus 12f (NY0244)): 3 fold |
| COc1ccc([C@@H](C)N(CC=C(c2ccccc2)c2ccccc2)CCCN2CCN(C)CC2)cc1 [NY0335, (R)-N-(1-(4-methoxyphenyl)ethyl)-N-(3-(4-methylpiperazin-1-yl)propyl)-3,3-diphenylprop-2-en-1-amine] | 4.14 µM | 4.1 µM | 8.12 µM | 8.2 ± 1 µM | 4.43 µM | 4.4 µM | 2.34 µM | 2.3 µM | 3.89 µM | 3.9 µM | 3.52 µM | 3.5 µM | 2.79 µM | 2.8 µM | – | 0.02 µM | – | growth of MiaPaCa-2 xenografts (MiaPaCa-2 tumors; listed as 22): suppressed; also recorded: strikingly decreased the rate of growth; IC50 (mGFP-K-RASG12V; 48 h, read-out: KRAS mislocalization potency): 0.02 µM; Emax (mGFP-K-RASG12V; 48 h, listed as 22): 0.81; Emax (mGFP-K-RASG12V; 48 h, listed as NY335): 0.81 ± 0.01 |
